Assays:
[1] = system: recombinant yeast W801M strain; assay: Simultaneous (glucose/xylose) fermentation test in medium supplemented with amino acid, primary screening; type: cell-based, Saccharomyces cerevisiae; details: hour 8 after start, amino acid amount per Table 3; for ΔXylose 0-8 h (decreased amount of xylose): YNGXAc+U medium (10 g/l xylose, 10 g/l glucose), 30° C., initial OD600=10, n=2; for Control ratio % (ΔXylose 0-8 h relative to no-addition control): YNGXAc+U medium, n=2
Method: (§1) The W801M strain prepared as described above was cultured in 5 ml of an YNG+U (6.7 g/l Yeast Nitrogen Base without amino acids, 20 g/l glucose, 20 mg/l uracil) liquid medium prepared in a test tube at 30° C. and 80 rpm for 24 hours, thereby preparing a pre-pre-culture solution. Next, the pre-pre-culture solution (5 ml) was added to new YNX+U liquid medium (250 ml) prepared in a baffled Erlenmeyer flask, followed by pre-culture at 30° C. and 100 rpm. After 48 hours of culture, the culture solution was subjected to 5 minutes of centrifugation at 1000×g at room temperature, thereby removing the supernatant.
(§2) To prevent the introduction of the substrate into the pre-culture solution, the thus collected microbial pellet was suspended in sterile water and then subjected to centrifugation at 1000×g for 5 minutes, thereby collecting microorganisms. Washing was performed twice. After washing, microorganisms were suspended in sterile water, so that a microbial solution was prepared. A sodium acetate buffer was added to the fermentation medium so as to suppress a pH decrease in the medium associated with fermentation. The microbial solution was added to an YNGXAc+U medium (6.7 g/l Yeast Nitrogen Base without amino acids, 10 g/l D-Xylose, 10 g/l Glucose, 25 mM sodium acetate, 20 mg/l uracil, pH 5.0) so that the initial microbial concentration was OD600=10. One type of amino acid was added to the YNGXAc+U medium to result in a predetermined concentration, and then the medium was used. Amino acid was dissolved in water to a concentration 10 times greater than the final concentration. Then the solution was adjusted to pH 5.0, diluted, and then used. The fermentation test was conducted as follows. Five (5) ml of the culture solution was added to a 15-ml plastic tube with a screw cap, the tube was sealed with the cap, and then the tube was shaken at 30° C. (100 rpm). Sampling from the culture solution was performed over time and thus substrates (xylose and glucose) and the product (ethanol) were analyzed via liquid chromatography. Liquid chromatography was performed using a Shim-pack SPR-Pb column (Shimadzu Corporation) at 80° C. An RID-10A refractive index detector (Shimadzu Corporation) was used. Water was used for a mobile phase and sent at a flow rate of 0.8 ml/min.
A fermentation test was conducted (n=2) using as a control an YNGXAc+U medium to which nothing had been added, an YNGXAc+U medium supplemented with casamino acid (CAA, 20 g/L) (that is, an amino acid mixture obtained via hydrolysis of casein) and YNGXAc+U medium supplemented with 18 types of amino acids considered to be contained in casamino acid (20 g/L) or 2 types of amino acid (glutamine and asparagine) (5 g/L) considered not to be contained in casamino acid. The results of the measurement of the decreased amounts of xylose at hour 8 after the start of the fermentation test are shown in Table 3.

[2] = system: recombinant yeast W801M strain; assay: Simultaneous (glucose/xylose) fermentation test in medium supplemented with amino acid, secondary test; type: cell-based, Saccharomyces cerevisiae; details: n=4
Method: as §1, §2
In addition, 8 hours later, glucose had been completely consumed and thus was not detected in any samples.
Also, 2 hours later, glucose remained in all samples.
Also, 22 hours later, both glucose and xylose had been completely consumed and thus was not detected. It was understood from the results that the microbial concentrations had increased from the initial microbial concentration of OD600=10 to around OD600=15 at hour 22. However, the microbial concentrations at hour 22 when the amino acids were added were equivalent to or lower than that of the control.

| Structure (SMILES) | ΔXylose 0-8 h (decreased amount of xylose) [1] | Control ratio % (ΔXylose 0-8 h relative to no-addition control) [1] | xylose consumption rate compared with the control (decreased amount of xylose at hour 8, FIG. 7) ([2]; amino acid added at 0.3 g/L) | xylose consumption rate compared with the control (decreased amount of xylose at hour 8, FIG. 7) ([2]; amino acid added at 1 g/L) |
| --- | --- | --- | --- | --- |
| CSCC[C@H](N)C(=O)O [Met] | 2.67 g/L | 100% | – | – |
| N[C@@H](Cc1ccccc1)C(=O)O [Phe] | 2.79 g/L | 105% | – | – |
| N[C@@H](CC(=O)O)C(=O)O [Asp, aspartic acid] | 2.46 g/L | 92% | – | – |
| O=C(O)[C@@H]1CCCN1 [Pro] | 2.97 g/L | 112% | – | – |
| N[C@@H](Cc1c[nH]c2ccccc12)C(=O)O [Trp] | 3.07 g/L | 115% | – | – |
| CC[C@H](C)[C@H](N)C(=O)O [Ile] | 2.09 g/L | 79% | – | – |
| NC(=O)C[C@H](N)C(=O)O [Asn, asparagine] | 3.60 g/L | 135% | Significant effects of improvement | Significant effects of improvement |
| CC(C)C[C@H](N)C(=O)O [Leu, leucine] | 1.12 g/L | 42% | – | – |
| CC(C)[C@H](N)C(=O)O [Val, valine] | 2.67 g/L | 100% | – | – |
| C[C@H](N)C(=O)O [Ala, alanine] | 2.95 g/L | 111% | – | – |
| N[C@@H](Cc1ccc(O)cc1)C(=O)O [Tyr, tyrosine] | 3.62 g/L | 136% | – | Significant effects of improvement |
| C[C@@H](O)[C@H](N)C(=O)O [Thr, threonine] | 3.29 g/L | 124% | Significant effects of improvement | Significant effects of improvement |
| N[C@@H](CCC(=O)O)C(=O)O [Glu, glutamic acid] | 2.25 g/L | 85% | – | – |
| NCC(=O)O [Gly] | 3.03 g/L | 114% | – | – |
| N=C(N)NCCC[C@H](N)C(=O)O [Arg, arginine] | 2.91 g/L | 109% | – | – |
| NC(=O)CC[C@H](N)C(=O)O [Gln, glutamine] | 3.05 g/L | 115% | – | – |
| N[C@@H](Cc1c[nH]cn1)C(=O)O [His, histidine] | 3.26 g/L | 122% | Significant effects of improvement | – |
| N[C@@H](CO)C(=O)O [Ser, serine] | 3.42 g/L | 128% | Significant effects of improvement | Significant effects of improvement |
| NCCCC[C@H](N)C(=O)O [Lys] | 3.08 g/L | 116% | – | – |
| N[C@@H](CS)C(=O)O [Cys] | 2.81 g/L | 106% | – | – |

From patent publication US20120149081A1, “METHOD FOR FERMENTATION CULTURE IN MEDIUM CONTAINING XYLOSE” (priority 2010, published 2012)
